Consider one molecule from US20220072324A1, “METHOD AND SYSTEM FOR APPLYING PULSED ELECTRIC FIELDS WITH HIGH […] MAGNETIC CORES” (Board of Supervisors of Louisiana State University and …, priority 2018, published 2022).

This experiment deals with mouse breast cancer 4T1 cells xenografts. Description: In vivo validation of Targeted Osmotic Lysis (TOL) in a breast cancer mouse model. The arrangement: species or system BALBc mice. To be noted: TOL: 7 mg/kg digoxin s.c. five times at 1 hr intervals plus pulsed magnetic fields from toroid device for 30 min, day 0 and day 1; versus control groups; FIG. 9. The method, then: FIG. 9 depicts in vivo validation of the therapeutic efficacy of pulsed magnetic fields inducing osmotic lysis in a breast cancer mouse model. Four groups of female, immune competent BALBc mice (n=8) with xenografts (0.7-1.2 cm diameter lower back) were established after injection of 500K highly malignant mouse breast cancer 4T1 cells in 7 mg/kg digoxin or saline (s.c. back of neck) five times at 1 hr intervals. This protocol establishes steady-state pharmacokinetics in even poorly vascularized tissues. The mice were exposed to the pulsed magnetic fields generated by a toroid device, for 30 min starting 15 min after the last injection. This treatment was administered on day 0 (first day of treatment), and on day 1. Mice were monitored for tumor growth and were sacrificed when they met the NIH criteria for humane endpoint euthanasia.

Take `C[C@H]1O[C@@H](O[C@H]2[C@@H](O)C[C@H](O[C@H]3[C@@H](O)C[C@H](O[C@H]4CC[C@@]5(C)[C@H](CC[C@@H]6[C@@H]5C[C@@H](O)[C@]5(C)[C@@H](C7=CC(=O)OC7)CC[C@]65O)C4)O[C@@H]3C)O[C@@H]2C)C[C@H](O)[C@@H]1O` [digoxin]: the “time until mice reached humane endpoint euthanasia criteria” value is “significantly longer than mice in the control groups”.
